The numbers were not newly measured in patent US5585357A, “Heteroaryloxymethyl ketones as interleukin-1βconverting enzyme inhibitors” (Sanofi Winthrop Inc., priority 1996, dated 1996), which cites them from elsewhere.

The conditions of series [1]: PG-APS model of arthritis in rats.
Series [2] deals with chronic myelogenous leukemia cells. Conditions: cells removed from leukemia patients.
For series [3] the following is noted: animal model of ulcerative colitis.
For series [4] the following is noted: small open-label human trial, subcutaneous.
For series [5] the following is noted: rat, oral administration.

On to “IL-1ra: naturally occurring IL-1β receptor antagonist”, for which, in series [1], the joint swelling result is “supresses joint swelling”. In addition, the colony growth entry in series [2] was “inhibit colony growth”. In addition, in series [3], the “tissue necrosis and number of inflammatory cells in the colon” value was “reduced tissue necrosis and the number of inflammatory cells in the colon”. The “efficacy in Rheumatoid Arthritis” value in series [4] is given as “shows efficacy”.

As to `CCOC(=O)C[C@H](NC(=O)[C@H](C)NC(=O)[C@@H](NC(=O)OCc1ccccc1)C(C)C)C(=O)COC(=O)c1c(Cl)cccc1Cl` [SDZ 224-015], the inflammation and pyrexia result in series [5] is “Reduction of inflammation and pyrexia”.
